One may read the Ki as the equilibrium dissociation constant of an inhibitor or competing ligand from its target. Low readings indicate higher affinity, high ones lower affinity.

Square brackets hold non-standard residues; d marks the D form. Peptide text beside a SMILES is read from it.

Consider eight molecules from ChEMBL document CHEMBL3997848 (Bioorg Med Chem, 2017).

The target in assay [1] is Mu opioid receptor-like OR2 (Danio rerio, UniProt B8JHS2). Description: Displacement of [3H]DPN from zebrafish mu opioid receptor expressed in HEK293 cell membranes after 1 hr by scintillation counting method.
Chain of Mu opioid receptor-like OR2 (B8JHS2 whole entry): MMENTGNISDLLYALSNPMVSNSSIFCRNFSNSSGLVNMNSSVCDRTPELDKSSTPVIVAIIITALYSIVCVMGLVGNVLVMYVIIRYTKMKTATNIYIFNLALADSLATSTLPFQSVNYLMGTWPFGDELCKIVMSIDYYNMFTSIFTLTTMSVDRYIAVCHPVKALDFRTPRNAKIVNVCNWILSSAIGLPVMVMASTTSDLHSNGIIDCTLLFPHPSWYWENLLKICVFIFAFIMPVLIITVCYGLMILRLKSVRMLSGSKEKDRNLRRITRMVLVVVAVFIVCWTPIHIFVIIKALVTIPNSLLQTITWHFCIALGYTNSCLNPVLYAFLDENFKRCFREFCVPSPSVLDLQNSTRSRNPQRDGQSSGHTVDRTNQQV
For assay [2], the target named is Opioid receptor, delta 1b (Danio rerio, UniProt B3DH72). Briefly: Displacement of [3H]DPN from zebrafish delta 1b opioid receptor expressed in HEK293 cell membranes after 4 hrs by scintillation counting method. In general terms: Displacement assays read how much labelled ligand stays bound in the presence of the test substance.
Chain of Opioid receptor, delta 1b (B3DH72 whole entry): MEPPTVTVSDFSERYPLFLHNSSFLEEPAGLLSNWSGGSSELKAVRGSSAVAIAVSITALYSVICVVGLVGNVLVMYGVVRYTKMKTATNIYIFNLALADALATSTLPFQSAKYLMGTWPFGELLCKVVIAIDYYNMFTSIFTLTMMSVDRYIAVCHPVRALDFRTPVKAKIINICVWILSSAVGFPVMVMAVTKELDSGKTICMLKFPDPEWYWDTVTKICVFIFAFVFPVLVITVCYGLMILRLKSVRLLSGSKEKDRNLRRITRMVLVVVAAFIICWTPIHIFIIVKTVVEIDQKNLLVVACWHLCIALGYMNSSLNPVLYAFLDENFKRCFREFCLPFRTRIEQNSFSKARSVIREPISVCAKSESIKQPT
The target in assay [3] is Opioid receptor homologue (Danio rerio, UniProt A3QJX7). Description: Displacement of [3H]DPN from zebrafish delta 1a opioid receptor expressed in HEK293 cell membranes after 1 hr by scintillation counting method.
Chain of Opioid receptor homologue (A3QJX7 whole entry): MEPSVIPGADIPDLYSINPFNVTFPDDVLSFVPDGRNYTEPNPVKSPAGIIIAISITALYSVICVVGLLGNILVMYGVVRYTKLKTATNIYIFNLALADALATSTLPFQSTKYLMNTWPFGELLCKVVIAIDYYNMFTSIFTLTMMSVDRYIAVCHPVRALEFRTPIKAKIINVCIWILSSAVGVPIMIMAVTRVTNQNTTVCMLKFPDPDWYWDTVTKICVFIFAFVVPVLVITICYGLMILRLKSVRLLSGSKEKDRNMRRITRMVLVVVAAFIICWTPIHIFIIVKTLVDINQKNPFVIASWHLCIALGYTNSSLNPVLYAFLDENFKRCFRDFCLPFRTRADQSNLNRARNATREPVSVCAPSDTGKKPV
Assay [4] relates to Mus musculus. Briefly: Antinociceptive activity in C57BL6/J mouse assessed as analgesia at 5 mg/kg, ip measured after 30 mins by tail flick test (reference value: -7%). The format is functional. On the technique in general: In hot-plate and tail-flick tests a longer latency is read as antinociception.
In assay [5] the test system is Mus musculus. Briefly: Antinociceptive activity in C57BL6/J mouse assessed as analgesia at 5 mg/kg, ip measured after 60 mins by tail flick test (reference value: 3%). The format is functional.
Assay [6] relates to Mus musculus. Briefly: Antinociceptive activity in C57BL6/J mouse assessed as analgesia at 5 mg/kg, ip measured after 90 mins by tail flick test (reference value: 10%). The format is functional.
Assay [7] concerns Mus musculus. Briefly: Antinociceptive activity in C57BL6/J mouse assessed as analgesia at 5 mg/kg, ip measured after 120 mins by tail flick test (reference value: -8%). It is filed as functional.
The subject of assay [8] is Mus musculus. Briefly: Antinociceptive activity in C57BL6/J mouse assessed as analgesia at 8 mg/kg, ip measured after 30 mins by tail flick test (reference value: -7%). The format is functional.
For assay [9], the system named is Mus musculus. Description: Antinociceptive activity in C57BL6/J mouse assessed as analgesia at 8 mg/kg, ip measured after 60 mins by tail flick test (reference value: 3%). The format is functional.
The subject of assay [10] is Mus musculus. Description: Antinociceptive activity in C57BL6/J mouse assessed as analgesia at 8 mg/kg, ip measured after 90 mins by tail flick test (reference value: 10%). It is filed as functional.
The subject of assay [11] is Mus musculus. Briefly: Antinociceptive activity in C57BL6/J mouse assessed as analgesia at 8 mg/kg, ip measured after 120 mins by tail flick test (reference value: -8%). The format is functional.

Consider `CSCC[C@H](NC(=O)[C@H](Cc1ccccc1)NC(=O)CNC(=O)CNC(=O)[C@@H](N)Cc1ccc(O)cc1)C(=O)O`, for which the Ki in [1] worked out at 0.684 µM; in assay [2] it was 0.045 µM.
In the case of `CSCC[C@@H](NC(=O)[C@@H](N)Cc1ccc(O)cc1)C(=O)NCC(=O)N[C@@H](Cc1ccccc1)C(=O)N1C[C@@H](O[C@H]2O[C@H](CO)[C@@H](O)[C@H](O)[C@@H]2O)C[C@H]1C(N)=O`, the inhibition constant Ki is 0.239 µM in assay [1], 0.609 µM in [3] and 0.536 µM in assay [2]. The Activity in assay [4] is 40%; in [5], 60%; in assay [6], 50%; in [7] it was 40%; in assay [8] it was 45%; in [9], 62%. Besides, the values for the Activity in assay [10] and in [11] were 35% and 45%, respectively.
As for `CSCC[C@@H](NC(=O)[C@@H](N)Cc1ccc(O)cc1)C(=O)NCC(=O)N[C@@H](Cc1ccccc1)C(=O)N1C[C@@H](O[C@@H]2O[C@H](CO)[C@@H](O)[C@H](O)[C@H]2O)C[C@H]1C(N)=O`, the Ki in assay [1] stood at 0.313 µM; in [3], 0.389 µM; in assay [2], 0.159 µM.
Turning to `CSCC[C@@H](NC(=O)[C@@H](N)Cc1ccc(O)cc1)C(=O)NCC(=O)N[C@@H](Cc1ccccc1)C(=O)N1C[C@@H](O[C@@H]2O[C@H](CO)[C@@H](O[C@H]3O[C@@H](CO)[C@H](O)[C@@H](O)[C@@H]3O)[C@H](O)[C@H]2O)C[C@H]1C(N)=O`, the Ki in [1] was found to be 0.223 µM; in assay [3], 0.843 µM; in [2], 0.528 µM.
In the case of `CSCC[C@@H](NC(=O)[C@@H](N)Cc1ccc(O)cc1)C(=O)NCC(=O)N[C@@H](Cc1ccccc1)C(=O)N1C[C@@H](O[C@@H]2O[C@H](CO)[C@@H](O[C@H]3O[C@@H](CO)[C@@H](O)[C@@H](O)[C@@H]3O)[C@H](O)[C@H]2O)C[C@H]1C(N)=O`, the Ki in assay [1] was 0.203 µM; in assay [3], 0.635 µM; in [2] it was 0.559 µM.
As for `CSCC[C@@H](NC(=O)[C@@H](N)Cc1ccc(O)cc1)C(=O)NCC(=O)N[C@@H](Cc1ccccc1)C(=O)N1C[C@@H](O[C@@H]2O[C@H](CO)[C@H](O)[C@H](O)[C@H]2O)C[C@H]1C(N)=O`, the inhibition constant (Ki) was 0.383 µM in [1], 0.468 µM in assay [3] and 0.518 µM in [2].
On to `CSCC[C@@H](NC(=O)[C@@H](N)Cc1ccc(O)cc1)C(=O)NCC(=O)N[C@@H](Cc1ccccc1)C(=O)N1CCC[C@H]1C(N)=O` (H-Y[dM]GFP-NH2), for which the results for the Ki in assay [1], in assay [3] and in assay [2] were 0.269 µM, 0.566 µM and 0.256 µM, respectively.
`CN1CC[C@]23c4c5ccc(O)c4O[C@H]2[C@@H](O)C=C[C@H]3[C@H]1C5` [MORPHINE]: the Activity in assay [4] is on record as 30%; in assay [5] it was 51%; in [6] it was 45%; in assay [7], 30%.
